Results from patent US20150094474A1, “AGRICULTURAL CHEMICALS” (Redx Pharma Ltd., priority 2012, published 2015).

Key:
barley = test: Herbicidal bioassay, barley (% necrosis); format: in vivo
How it was run: (§1)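 Scoring of % necrosis followed EPPO guideline PP1/135 at specified growth intervals, five replicates per species and treatment. Plants at the 2-4 true leaf stage received Potter-tower sprays of DMSO-diluted compounds across six levels from 0.0001% to 0.05%, with water and DMSO controls.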

peas = test: Herbicidal bioassay, peas (% necrosis); format: in vivo
How it was run: as §1

CC(/C=N/OCc1ccccc1)Oc1ccc(Oc2ccc(C(F)(F)F)cn2)cc1 (stereo not drawn) [Compound 65, N-Benzyloxy-2-[4-[[5-(trifluoromethyl)-2-pyridyl]oxy]phenoxy]propan-1-imine]
C (less than 50% necrosis): Sum of % necrosis in barley (barley; Dose 0.000001, Day 0) | Sum of % necrosis in barley (barley; Dose 0.000001, Day 1) | Sum of % necrosis in barley (barley; Dose 0.000001, Day 3) | Sum of % necrosis in barley (barley; Dose 0.000001, Day 7) | Sum of % necrosis in barley (barley; Dose 0.000001, Day 10) | Sum of % necrosis in barley (barley; Dose 0.000001, Day 14) | Sum of % necrosis in barley (barley; Dose 0.000005, Day 0) | Sum of % necrosis in barley (barley; Dose 0.000005, Day 1) | Sum of % necrosis in barley (barley; Dose 0.000005, Day 3) | Sum of % necrosis in barley (barley; Dose 0.000005, Day 7) | Sum of % necrosis in barley (barley; Dose 0.000005, Day 10) | Sum of % necrosis in barley (barley; Dose 0.000005, Day 14) | Sum of % necrosis in barley (barley; Dose 0.00001, Day 0) | Sum of % necrosis in barley (barley; Dose 0.00001, Day 1) | Sum of % necrosis in barley (barley; Dose 0.00001, Day 3) | Sum of % necrosis in barley (barley; Dose 0.00001, Day 7) | Sum of % necrosis in barley (barley; Dose 0.00001, Day 10) | Sum of % necrosis in barley (barley; Dose 0.00001, Day 14) | Sum of % necrosis in barley (barley; Dose 0.00005, Day 0) | Sum of % necrosis in barley (barley; Dose 0.00005, Day 1) | Sum of % necrosis in barley (barley; Dose 0.00005, Day 3) | Sum of % necrosis in barley (barley; Dose 0.00005, Day 7) | Sum of % necrosis in barley (barley; Dose 0.00005, Day 10) | Sum of % necrosis in barley (barley; Dose 0.00005, Day 14) | Sum of % necrosis in barley (barley; Dose 0.0001, Day 0) | Sum of % necrosis in barley (barley; Dose 0.0001, Day 1) | Sum of % necrosis in barley (barley; Dose 0.0001, Day 3) | Sum of % necrosis in barley (barley; Dose 0.0001, Day 7) | Sum of % necrosis in barley (barley; Dose 0.0001, Day 10) | Sum of % necrosis in barley (barley; Dose 0.0001, Day 14) | Sum of % necrosis in barley (barley; Dose 0.0005, Day 0) | Sum of % necrosis in barley (barley; Dose 0.0005, Day 1) | Sum of % necrosis in barley (barley; Dose 0.0005, Day 3) | Sum of % necrosis in barley (barley; Dose 0.0005, Day 7) | Sum of % necrosis in barley (barley; Dose 0.0005, Day 10) | Sum of % necrosis in barley (barley; Dose 0.0005, Day 14) | Sum of % necrosis in Peas (peas; Dose 0.000001, Day 0) | Sum of % necrosis in Peas (peas; Dose 0.000001, Day 1) | Sum of % necrosis in Peas (peas; Dose 0.000001, Day 3) | Sum of % necrosis in Peas (peas; Dose 0.000001, Day 7) | Sum of % necrosis in Peas (peas; Dose 0.000001, Day 10) | Sum of % necrosis in Peas (peas; Dose 0.000001, Day 14) | Sum of % necrosis in Peas (peas; Dose 0.000005, Day 0) | Sum of % necrosis in Peas (peas; Dose 0.000005, Day 1) | Sum of % necrosis in Peas (peas; Dose 0.000005, Day 3) | Sum of % necrosis in Peas (peas; Dose 0.000005, Day 7) | Sum of % necrosis in Peas (peas; Dose 0.000005, Day 10) | Sum of % necrosis in Peas (peas; Dose 0.000005, Day 14) | Sum of % necrosis in Peas (peas; Dose 0.00001, Day 0) | Sum of % necrosis in Peas (peas; Dose 0.00001, Day 1) | Sum of % necrosis in Peas (peas; Dose 0.00001, Day 3) | Sum of % necrosis in Peas (peas; Dose 0.00001, Day 7) | Sum of % necrosis in Peas (peas; Dose 0.00001, Day 10) | Sum of % necrosis in Peas (peas; Dose 0.00001, Day 14) | Sum of % necrosis in Peas (peas; Dose 0.00005, Day 0) | Sum of % necrosis in Peas (peas; Dose 0.00005, Day 1) | Sum of % necrosis in Peas (peas; Dose 0.00005, Day 3) | Sum of % necrosis in Peas (peas; Dose 0.00005, Day 7) | Sum of % necrosis in Peas (peas; Dose 0.00005, Day 10) | Sum of % necrosis in Peas (peas; Dose 0.00005, Day 14) | Sum of % necrosis in Peas (peas; Dose 0.0001, Day 0) | Sum of % necrosis in Peas (peas; Dose 0.0001, Day 1) | Sum of % necrosis in Peas (peas; Dose 0.0001, Day 3) | Sum of % necrosis in Peas (peas; Dose 0.0001, Day 7) | Sum of % necrosis in Peas (peas; Dose 0.0001, Day 10) | Sum of % necrosis in Peas (peas; Dose 0.0001, Day 14) | Sum of % necrosis in Peas (peas; Dose 0.0005, Day 0) | Sum of % necrosis in Peas (peas; Dose 0.0005, Day 1) | Sum of % necrosis in Peas (peas; Dose 0.0005, Day 3) | Sum of % necrosis in Peas (peas; Dose 0.0005, Day 7) | Sum of % necrosis in Peas (peas; Dose 0.0005, Day 10) | Sum of % necrosis in Peas (peas; Dose 0.0005, Day 14)
